Measured values published in paper PMC11940557, “Integration of metabolomics and chemometrics with in-silico and in-vitro approaches to unravel SARS-Cov-2 inhibitors from South African plants” (PLOS One, 2025).

Target: T1, SARS-CoV-2 3CLpro (3CL protease, MBP-tagged; main protease, Mpro) (Severe acute respiratory syndrome coronavirus 2, UniProt P0DTD1)
T1 construct: gene rep
Experiment: fluorogenic protease substrate assay (ex […] / em […] nm)
Type: biochemical

Compound	IC50
CC(=O)O[C@H]1[C@H](Oc2c(-c3ccc(O)c(O)c3)oc3cc(O)cc(O)c3c2=O)O[C@H](CO[C@@H]2O[C@@H](C)[C@H](O)[C@@H](O)[C@H]2O)[C@@H](O)[C@@H]1O [2”-O-acetylrutin]	100 nM
O=C(O)CC(=O)OC[C@H]1O[C@@H](Oc2c(-c3ccc(O)c(O)c3)oc3cc(O)cc(O)c3c2=O)[C@H](O)[C@@H](O)[C@@H]1O [quercetin 3-(6”-malonyl-glucoside)]	170 nM
CC(=O)OC[C@H]1O[C@@H](Oc2c(-c3ccc(O)c(O)c3)oc3cc(O)cc(O)c3c2=O)[C@H](O)[C@@H](O)[C@@H]1O [quercetin 3-O-(6“-acetyl-glucoside)]	120 nM
